The first assay has as its target T1, Xanthine dehydrogenase/oxidase (Bos taurus, UniProt P80457). Description: Inhibition of bovine xanthine oxidase by spectrophotometry.
Conditions: not given
T1 sequence (P80457 whole entry): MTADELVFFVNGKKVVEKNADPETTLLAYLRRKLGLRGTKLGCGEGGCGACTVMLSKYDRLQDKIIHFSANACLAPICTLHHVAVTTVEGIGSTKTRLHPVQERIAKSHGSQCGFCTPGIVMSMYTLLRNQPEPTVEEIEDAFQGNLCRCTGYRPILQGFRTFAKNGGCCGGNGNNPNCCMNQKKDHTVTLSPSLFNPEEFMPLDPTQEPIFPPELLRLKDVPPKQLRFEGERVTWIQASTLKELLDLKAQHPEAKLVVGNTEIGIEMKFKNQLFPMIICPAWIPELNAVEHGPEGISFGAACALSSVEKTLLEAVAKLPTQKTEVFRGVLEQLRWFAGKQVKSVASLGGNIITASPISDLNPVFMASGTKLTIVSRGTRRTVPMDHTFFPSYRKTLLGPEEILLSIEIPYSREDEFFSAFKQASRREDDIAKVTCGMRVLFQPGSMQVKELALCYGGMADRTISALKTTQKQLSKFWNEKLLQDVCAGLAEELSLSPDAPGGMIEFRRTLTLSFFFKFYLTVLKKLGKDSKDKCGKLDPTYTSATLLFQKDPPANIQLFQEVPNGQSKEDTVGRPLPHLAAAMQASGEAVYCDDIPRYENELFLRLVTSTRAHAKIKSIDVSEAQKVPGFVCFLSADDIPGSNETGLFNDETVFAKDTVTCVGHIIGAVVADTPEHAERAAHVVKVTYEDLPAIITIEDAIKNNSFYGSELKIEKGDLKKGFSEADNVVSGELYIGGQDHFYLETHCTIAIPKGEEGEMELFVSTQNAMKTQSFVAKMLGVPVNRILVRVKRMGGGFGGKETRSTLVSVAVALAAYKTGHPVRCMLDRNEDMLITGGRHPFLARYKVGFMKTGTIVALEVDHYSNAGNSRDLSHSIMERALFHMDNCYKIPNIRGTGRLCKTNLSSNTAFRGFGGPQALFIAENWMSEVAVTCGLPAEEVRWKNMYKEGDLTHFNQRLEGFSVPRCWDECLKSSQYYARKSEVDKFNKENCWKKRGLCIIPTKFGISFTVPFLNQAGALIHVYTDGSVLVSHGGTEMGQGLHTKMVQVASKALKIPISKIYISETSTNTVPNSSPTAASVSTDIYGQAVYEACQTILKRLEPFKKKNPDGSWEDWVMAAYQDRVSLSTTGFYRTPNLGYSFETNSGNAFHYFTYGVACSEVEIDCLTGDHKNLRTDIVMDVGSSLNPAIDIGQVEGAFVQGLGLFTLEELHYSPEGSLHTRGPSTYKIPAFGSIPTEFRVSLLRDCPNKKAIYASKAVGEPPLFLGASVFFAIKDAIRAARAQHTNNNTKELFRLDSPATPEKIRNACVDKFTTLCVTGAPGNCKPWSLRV
As for `CC(C)(C)c1ccc(COc2ccc(-c3cc(C(=O)O)[n-][o+]3)cc2[N+](=O)[O-])cc1`, the midpoint of inhibition, the IC50, lay at 12800 nM.

As for `N#Cc1cc(-c2cc(C(=O)O)no2)ccc1OCc1ccccc1`, half-maximal inhibition (IC50) required 590 nM.

On to `CC(C)(C)c1ccc(COc2ccc(-c3cc(C(=O)O)no3)cc2C#N)cc1`, for which the IC50 was found to be 1010 nM.

Consider `O=C(O)c1cc(-c2ccc(OCc3ccc(Cl)cc3)c([N+](=O)[O-])c2)on1`, for which inhibition was half-maximal at 2830 nM (IC50).

As to `CC(C)COc1ccc(-c2cc(C(=O)O)no2)cc1[N+](=O)[O-]`, the IC50 worked out at 1000 nM.

For the compound `O=C(O)c1cc(-c2ccc(OCc3ccccc3)c([N+](=O)[O-])c2)on1`, it took 970 nM to reach half-maximal inhibition (IC50).

For `N#Cc1cc(-c2cc(C(=O)O)no2)ccc1OCc1ccc(Cl)cc1`, the midpoint of inhibition, the IC50, lay at 630 nM.

The target of a further assay is T1, Xanthine dehydrogenase/oxidase. Description: Inhibition of bovine xanthine oxidase at 10 ug/ml by spectrophotometry. The following applies: cattle.
As for `Cc1ccc(COc2ccc(-c3cc(C(=O)O)no3)cc2[N+](=O)[O-])cc1`, the inhibition at 10 µg/mL is below 50%.

`Cc1ccc(COc2ccc(-c3cc(C(=O)O)no3)cc2C#N)cc1` registered an inhibition at 10 µg/mL below 50%.
